# Laboratory results taken from patent US5496847A, “Aminomethyl-benzodioxane and benzopyran serotonergic agents” (Bristol-Myers Squibb Co., priority 1995, dated 1996).
# pIC50: −log10 of the molar value. Structures can show the parent of a compound that is named as a salt.
# Target: T1, 5-HT1A receptor
# T1 construct: from tissue
# Assay: In vitro binding to the 5-HT1A receptor (method of Peroutka, Brain Research 344, 167 (1985), minor modifications)
# Conditions: in vitro binding to 5-HT1A receptor; class symbols
# Protocol: In vitro IC50 test values for binding to the 5-HT1A receptor were determined for representative compounds of Formula I by the method of S. J. Peroutka, Brain Research 344, 167 (1985); with only minor modifications. Test IC50 values lower than 100 nM are considered to reflect activity at the 5-HT1A receptor.
# T1 sequence (F6Q2H9 1-422): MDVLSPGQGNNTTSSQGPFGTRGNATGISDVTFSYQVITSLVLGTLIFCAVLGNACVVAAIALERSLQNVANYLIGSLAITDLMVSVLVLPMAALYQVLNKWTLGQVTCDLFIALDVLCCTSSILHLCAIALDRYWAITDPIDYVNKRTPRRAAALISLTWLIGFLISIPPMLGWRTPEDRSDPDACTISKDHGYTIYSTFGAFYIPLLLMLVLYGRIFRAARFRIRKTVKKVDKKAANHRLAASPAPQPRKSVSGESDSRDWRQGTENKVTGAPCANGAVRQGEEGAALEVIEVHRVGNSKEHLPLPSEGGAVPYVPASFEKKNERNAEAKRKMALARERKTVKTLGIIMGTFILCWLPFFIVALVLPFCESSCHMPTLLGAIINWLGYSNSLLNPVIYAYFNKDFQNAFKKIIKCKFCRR
row,pIC50,Structure (SMILES)
1,7.60 to 8.30,"COC1(c2ccc3c(c2)OCO3)CCC(NCC2COc3ccccc3O2)CC1 (racemic) [Example 10, (±)-Trans-N-[4-(1,3-benzodioxol-5-yl)-4-methoxycyclohexyl]-1,4-benzodioxane-2-methanamine hemifumarate]"
2,7.60 to 8.30,"COC1(c2ccc3c(c2)OCO3)CCC(N(C)CC2COc3ccccc3O2)CC1 (mixture of isomers) [Example 8, (±) -Cis-N-Methyl-N-[4-(1,3-benzodioxol-5-yl)-4-methoxycyclohexyl]-1,4,-benzodioxane-2-methanamine fumarate]"
3,7.60 to 8.30,"C1=C(c2ccc3c(c2)OCO3)CCC(NC[C@H]2COc3ccccc3O2)C1 (stereo partly drawn) [Example 12, N-[4-(1,3-Benzodioxol-5-yl)-3-cyclohexen-1-yl]-2S-1,4-benzodioxane-2-methanamine]"
4,> 9.00,"OC1(c2ccc(F)c(F)c2)CCC(NCC2COc3ccccc3O2)CC1 (racemic) [Example 13, (±)-Cis-4-[(1,4-Benzodioxan-2-yl)methylamino]-1-(3,4-difluorophenyl)cyclohexanol]"
5,> 9.00,"OC1(c2ccc3c(c2)OCO3)CCC(NCC2CCc3ccccc3O2)CC1 (racemic) [Example 11, (±)-Cis-4-[[(3,4-dihydro-2H-1-benzopyran-2-yl)methyl]amino]-1-(1,3-benzodioxol-5-yl)cyclohexanol]"
6,> 9.00,"COC1(c2ccc3c(c2)OCO3)CCC(NCC2COc3ccccc3O2)CC1 (single isomer, unassigned; (-)) [Example 9]"

# The remaining lines, values behind:
row,Structure (SMILES),pIC50
1,"COC1(c2ccc3c(c2)OCO3)CCC(NCC2COc3ccccc3O2)CC1 (stereo not drawn) [Example 2, Cis-N-[4-(1,3-Benzodioxol-5-yl)-4-methoxycyclohexyl]-2S-1,4-benzodioxane-2-methanamine hemifumarate]",> 9.00
2,"CCN(CC1COc2ccccc2O1)C1CCC(O)(c2ccc3c(c2)OCO3)CC1 (mixture of isomers) [Example 7, (±)-Cis-N-Ethyl-N,[4-(1,3-benzodioxol-5-yl)-4-hydroxycyclohexyl]-1,4-benzodioxane-2-methanamine fumarate]",7.60 to 8.30
3,"CCOC1(c2ccc3c(c2)OCO3)CCC(NCC2COc3ccccc3O2)CC1 (racemic) [Example 5, (±)-Cis-N-[4-(1,3-benzodioxol-5-yl)-4-ethoxycyclohexyl]-1,4-benzodioxane-2-methanamine fumarate]",8.30 to 9.00
4,"COC1(c2ccc3c(c2)OCCO3)CCC(NCC2COc3ccccc3O2)CC1 (racemic) [Example 4, (±)-Cis-N-[4-(1,4-benzodioxan-6-yl)-4-methoxycyclohexyl]-1,4-benzodioxane-2-methanamine hemifumarate]",8.30 to 9.00
5,"OC1(c2ccc3c(c2)OCO3)CCC(NCC2COc3ccccc3O2)CC1 (stereo not drawn) [Example 1, Cis-4-[(2S-1,4-Benzodioxan-2-yl)methylamino]-1-(1,3-benzodioxol-5-yl)cyclohexanol]",> 9.00
6,"COC1(c2ccc3c(c2)OCO3)CCC(NCC2COc3ccccc3O2)CC1 (racemic) [Example 6, (±)-Cis-N-[4-(1,3-Benzodioxol-5-yl)-4-methoxycyclohexyl]-1,4-benzodioxane-2-methanamine hemifumarate]",8.30 to 9.00
